Laboratory results as given in PMC5329948, “Caspase vinyl sulfone small molecule inhibitors prevent axonal degeneration in human neurons and reverse cognitive impairment in Caspase-6-overexpressing mice” (Molecular Neurodegeneration, 2017).

Target: T1, recombinant Caspase-9 (Homo sapiens, UniProt P55211)
T1 construct: purchased BioVision
Assay: Caspase Inhibitor Drug Screening Kit (BioVision), LEHD-AFC substrate
Assay type: biochemical
Conditions: not active site titrated
Procedure: The half-maximal inhibitory concentrations (IC50) for NWL inhibitors (Patent publication # WO/2009/140765, WO/2010/133000, and WO/2012/140500) was determined by incubating 0 to 20 μM NWL-117 and NWL-154 with 20 nM of active site-titrated Casp6 in SB at room temperature for 5 minutes. Then, 10 μM Ac-VEID-AFC was added and fluorescence measured for 20 min at 37 °C as described above. New World Laboratories performed the IC50 determination for NWL inhibitors dissolved in dimethyl sulfoxide (DMSO) against recombinant Casp1-10 using the Caspase Inhibitor Drug Screening Kits (BioVision, San Francisco, CA) following the manufacturer’s instructions and the preferred substrates for the caspases (Caspase-1: WAD-AFC, Caspase-2: VDVAD-AFC, Caspase-3: DEVD-AFC, Caspase-4: LEVD-AFC, Caspase-5: WEHD-AFC, Casp6:VEID-AFC, Caspase-7: DEVD-AFC, Caspase-8: IETD-AFC, Caspase-9: LEHD-AFC, Caspase-10: AEVD-AFC). In transfected HCT116 cells, 0 to 100 μM NWL inhibitors were added in the culture media and left on the cells for 2 h. Cells were washed once with 1 mL ice-cold PBS, incubated on ice for 5 min with 200 μL cell lysis buffer (CLB) (50 mM HEPES, 0.1% CHAPS, 0.1 mM EDTA), and gently scraped off. Protein concentrations were determined by Bradford assay (BioRad, Mississauga, ON, CA) by measuring the absorbance at 595 nm using the BioTek Synergy H4 plate reader. […]

T1 sequence (P55211 whole entry): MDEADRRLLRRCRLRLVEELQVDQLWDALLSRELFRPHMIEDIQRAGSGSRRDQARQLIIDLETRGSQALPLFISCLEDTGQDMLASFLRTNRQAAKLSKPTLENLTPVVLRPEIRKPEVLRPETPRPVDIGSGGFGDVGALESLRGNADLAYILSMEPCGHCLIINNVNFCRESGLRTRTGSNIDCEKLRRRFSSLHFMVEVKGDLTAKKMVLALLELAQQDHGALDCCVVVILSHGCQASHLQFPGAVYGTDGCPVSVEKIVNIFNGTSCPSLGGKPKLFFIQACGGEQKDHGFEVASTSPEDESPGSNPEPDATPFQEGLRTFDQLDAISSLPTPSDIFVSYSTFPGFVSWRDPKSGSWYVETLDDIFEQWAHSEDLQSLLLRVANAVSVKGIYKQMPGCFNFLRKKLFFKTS

| SMILES | IC50 |
| --- | --- |
| CCC(C)[C@H](NC(=O)[C@H](CCC(=O)O)NC(=O)[C@@H](NC(=O)OCc1ccccc1)C(C)C)C(=O)N[C@H](/C=C/S(C)(=O)=O)CC(=O)O (some centres unmarked) [NWL-117] | 0.79 µM |
| CCC(C)[C@H](NC(=O)[C@H](CCC(=O)O)NC(=O)[C@@H](NC(=O)OCc1ccccc1)C(C)C)C(=O)N[C@H](/C=C(\Cl)S(C)(=O)=O)CC(=O)O (some centres unmarked) [NWL-154] | 6.4 µM |
